Test results from patent US20170087120A1, “COMPOSITION FOR IMPROVING BIOAVAILBILITY AND EFFICACY OF TAXANE” (Florida A&M University, priority 2015, published 2017).

Legend:
CYP3A4 = assay: in vitro microsomal metabolism of taxane by human liver microsomes; type: in vitro ADME; details: for metabolism of docetaxel (DTX) by human liver microsomes: PPL added in reaction mixture with DTX
Protocol: In FIG. 1A, in vitro microsomal metabolism studies of DTX by human liver microsomes were carried out in combination with PPL and compared with a known standard CYP3A4 inhibitor, Cyclosporin A (CYA).

Caco-2 monolayer = assay: permeability and efflux across Caco-2 monolayer; details: co-treated with piperlongumine
Text: In FIG. 1B, Caco-2 is colon carcinoma cells used to evaluate the permeability and efflux of drug in GI track.

[1] = in vivo oral pharmacokinetic in SD rats; details: coadministration with PPL vs DTX alone
MDA-MB-231 cell line = assay: in vitro migration assay; type: cell-based
Text: FIG. 2C depicts in vitro migration assay on MDA-MB-231 cell line.

[2] = cancer cell lines, with piperlongumine

With COc1cc(/C=C/C(=O)N2CCC=CC2=O)cc(OC)c1OC [PPL, piperlongumine] the “metabolism of docetaxel (DTX) by human liver microsomes” value (CYP3A4) was “significantly reduced”, the “metabolism of docetaxel (DTX) by human liver microsomes” value (CYP3A4; listed as Piperlongumine) was “reduction” and the “half-life of DTX” value (CYP3A4; human liver microsomes, PPL added in reaction mixture) was “doubled”. The CYP3A4 inhibition (CYP3A4; human liver microsomes, compared with Cyclosporin A (CYA)) was “comparable to inhibitor CYA”, the “metabolism of paclitaxel by human microsomal enzyme” value (CYP3A4; with piperlongumine) was “reduction” and the “permeability co-efficient of docetaxel” value (Caco-2 monolayer) was “enhancement”. The “oral bioavailability of docetaxel (DTX)” value [1] was “significant enhancement”, the “oral bioavailability of docetaxel (DTX)” value ([1]; listed as Piperlongumine) was “significantly enhanced” and the “% bridging of migration area” value (MDA-MB-231 cell line; MDA-MB-231 cell line) was “significant reduction”. The “anti-migration effect of docetaxel” value (MDA-MB-231 cell line; [2]) was “enhanced” and the “anti-migration effect of paclitaxel” value (MDA-MB-231 cell line; [2]) was “enhanced”.
